# Source: article PMC6167002 (Journal of Medicinal Chemistry, 2018)
# Assays:
# T. brucei = tested on: T1, T. brucei; assay: microbe, parasite or virus in culture; parameters: species or system T. b. brucei s427 bloodstream form; bloodstream T. b. brucei viability, resazurin fluorescence; details: Trypanosoma brucei, 73 h
# T1 construct: s427
# Protocol: T.brucei cell viability assays were carried out as described previously.[6] In brief, bloodstream T. b. brucei s427 was cultured at 37 °C in modified HMI9 medium (56 μM 1-thioglycerol was substituted for 200 μM 2-mercaptoethanol) and quantified using a hemocytometer. Cell culture plates were stamped with 1 μL of an appropriate concentration of test compound in DMSO followed by the addition of 200 μL of trypanosome culture (10^4 cells ml^–1) to each well except for one column that received media only. Culture plates of T. brucei cells were incubated at 37 °C in an atmosphere of 5% CO2 for 69 h before the addition of 20 μL of resazurin (final concentration, 50 μM). After a further 4 h incubation, fluorescence was measured (excitation 528 nm; emission 590 nm) using a BioTek flx800 plate reader.
# [1] = target: T2, TbNMT (Trypanosoma brucei N-myristoyltransferase) (Trypanosoma brucei, UniProt Q388H8); assay: scintillation proximity assay with [3H]myristoyl-CoA and biotinylated CAP5.[…] peptide; assay type: biochemical
# T2 construct: gene Tb10.61.2550
# T2 sequence (Q388H8 entry or part of it): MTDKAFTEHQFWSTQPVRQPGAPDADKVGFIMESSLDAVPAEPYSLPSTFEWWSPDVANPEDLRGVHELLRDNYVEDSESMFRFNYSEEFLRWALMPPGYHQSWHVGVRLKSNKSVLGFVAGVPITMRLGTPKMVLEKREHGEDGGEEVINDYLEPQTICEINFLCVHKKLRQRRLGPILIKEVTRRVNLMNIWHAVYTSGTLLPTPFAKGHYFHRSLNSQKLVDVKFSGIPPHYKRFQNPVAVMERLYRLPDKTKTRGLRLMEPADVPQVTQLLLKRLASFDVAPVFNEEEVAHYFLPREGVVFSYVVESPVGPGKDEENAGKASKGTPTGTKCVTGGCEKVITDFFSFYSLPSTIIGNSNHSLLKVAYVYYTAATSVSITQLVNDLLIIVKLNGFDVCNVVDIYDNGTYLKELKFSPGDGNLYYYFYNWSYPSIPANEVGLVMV
SMILES,EC50 (T. brucei),IC50 [1]
"CC(C)Cc1ccc2ncccc2c1NS(=O)(=O)c1ccc(CCCN2CCN3CCC[C@H]3C2)cc1 [S2, (S)-4-(3-(hexahydropyrrolo[1,2-a]pyrazin-2(1H)-yl)propyl)-N-(6-isobutylquinolin-5-yl)benzenesulfonamide]",150 nM,
"CC(C)Cc1ccc2ncccc2c1NS(=O)(=O)c1ccc(CCCOC[C@H]2COCCN2)cc1 [S5, (S)-N-(6-isobutylquinolin-5-yl)-4-(3-(morpholin-3-ylmethoxy)propyl)benzenesulfonamide]",710 nM,
"CC(C)Cc1ccc2ncccc2c1NS(=O)(=O)c1ccc(CCCO[C@H]2C[C@H]3CC[C@@H](C2)N3C)cc1 [compound 42, 42]",9 nM,
"CC(C)Cc1ccc2ncccc2c1NS(=O)(=O)c1ccc(CCCOC[C@H]2COCCN2C)cc1 [S6, (S)-N-(6-isobutylquinolin-5-yl)-4-(3-((4-methylmorpholin-3-yl)methoxy)propyl)benzenesulfonamide]",250 nM,
"CC(C)Cc1ccc2ncccc2c1NS(=O)(=O)c1ccc(CCCO[C@@H]2C[C@H]3CC[C@@H](C2)N3C)cc1 [compound 41, 41]",91 nM,
CC(C)Cc1ccc2nn(C)cc2c1NS(=O)(=O)c1ccc(CCCO[C@@H]2C[C@H]3CC[C@@H](C2)N3C)cc1 [compound 60],,5 nM
"CC(C)Cc1ccc2ncccc2c1NS(=O)(=O)c1ccc(CCCO[C@@H]2CCCN(C)C2)cc1 [compound 43, (R)-N-(6-isobutylquinolin-5-yl)-4-(3-((1-methylpiperidin-3-yl)oxy)propyl)benzenesulfonamide]",39 nM,
"CC(C)Cc1ccc2ncccc2c1NS(=O)(=O)c1ccc(CCCC2CCNCC2)cc1 [S1, N-(6-isobutylquinolin-5-yl)-4-(3-(piperidin-4-yl)propyl)benzenesulfonamide]",25 nM,
"CC(C)Cc1ccc2ncccc2c1NS(=O)(=O)c1ccc(CCCCN2CCN3CCC[C@@H]3C2)cc1 [compound 35, (R)-4-(4-(hexahydropyrrolo[1,2-a]pyrazin-2(1H)-yl)butyl)-N-(6-isobutylquinolin-5-yl)benzenesulfonamide]",250 nM,
"CC(C)Cc1ccc2ncccc2c1NS(=O)(=O)c1ccc(CCCOC[C@@H]2CCCCN2)cc1 [S3, (S)-N-(6-isobutylquinolin-5-yl)-4-(3-(piperidin-2-ylmethoxy)propyl)benzenesulfonamide]",850 nM,
"CC(C)Cc1ccc2ncccc2c1NS(=O)(=O)c1ccc(CCCCN2CCCN(C)CC2)cc1 [compound 37, N-(6-isobutylquinolin-5-yl)-4-(4-(4-methyl-1,4-diazepan-1-yl)butyl)benzenesulfonamide]",59 nM,
"CC(C)Cc1ccc2ncccc2c1NS(=O)(=O)c1ccc(CCCCN2C[C@@H](C)N[C@@H](C)C2)cc1 [compound 40, 4-(4-((3S,5R)-3,5-dimethylpiperazin-1-yl)butyl)-N-(6-isobutylquinolin-5-yl)benzenesulfonamide]",350 nM,
"CC(C)Cc1ccc2ncccc2c1NS(=O)(=O)c1ccc(CCCC2CCN(C)CC2)cc1 [compound 31, N-(6-isobutylquinolin-5-yl)-4-(3-(1-methylpiperidin-4-yl)propyl)benzenesulfonamide]",9 nM,
"CC(C)Cc1ccc2ncccc2c1NS(=O)(=O)c1ccc(CCCN2CCN(C)CC2)cc1 [compound 38, N-(6-isobutylquinolin-5-yl)-4-(3-(4-methylpiperazin-1-yl)propyl)benzenesulfonamide]",84 nM,
"CC(C)Cc1ccc2ncccc2c1NS(=O)(=O)c1ccc(CCCN2CCCN(C)CC2)cc1 [compound 36, N-(6-isobutylquinolin-5-yl)-4-(3-(4-methyl-1,4-diazepan-1-yl)propyl)benzenesulfonamide]",18 nM,
"CC(C)Cc1ccc2ncccc2c1NS(=O)(=O)c1ccc(CCCN2CCN3CCC[C@@H]3C2)cc1 [compound 34, (R)-4-(3-(hexahydropyrrolo[1,2-a]pyrazin-2(1H)-yl)propyl)-N-(6-isobutylquinolin-5-yl)benzenesulfonamide]",40 nM,
"CC(C)Cc1ccc2ncccc2c1NS(=O)(=O)c1ccc(CCCCN2CCNCC2)cc1 [compound 39, N-(6-isobutylquinolin-5-yl)-4-(4-(piperazin-1-yl)butyl)benzenesulfonamide]",180 nM,
"CC(C)Cc1ccc2ncccc2c1NS(=O)(=O)c1ccc(CCCOC[C@@H]2CNCCO2)cc1 [compound 44, (S)-N-(6-isobutylquinolin-5-yl)-4-(3-(morpholin-2-ylmethoxy)propyl)benzenesulfonamide]",39 nM,
"CC(C)Cc1ccc2ncccc2c1NS(=O)(=O)c1ccc(CCCCC2CCN(C)CC2)cc1 [compound 32, N-(6-Isobutylquinolin-5-yl)-4-(4-(1-methylpiperidin-4-yl)butyl)benzenesulfonamide]",19 nM,< 5 nM
"CC(C)Cc1ccc2ncccc2c1NS(=O)(=O)c1ccc(CCCCC2CCNCC2)cc1 [compound 33, N-(6-isobutylquinolin-5-yl)-4-(4-(piperidin-4-yl)butyl)benzenesulfonamide]",21 nM,
"CC(C)Cc1ccc2nn(C)cc2c1NS(=O)(=O)c1ccc(CCCCC2CCN(C)CC2)cc1 [compound 54, N-(5-Isobutyl-2-methyl-2H-indazol-4-yl)-4-(4-(1-methylpiperidin-4-yl)butyl)benzenesulfonamide]",,< 5 nM
"CC(C)Cc1ccc2ncccc2c1NS(=O)(=O)c1ccc(CCCOC[C@@H]2CCCN(C)C2)cc1 [S4, (R)-N-(6-isobutylquinolin-5-yl)-4-(3-((1-methylpiperidin-3-yl)methoxy)propyl)benzenesulfonamide]",10 nM,
